Data taken from ChEMBL document CHEMBL4219086, “Development of benzoxazole deoxybenzoin oxime and acyloxylamine derivatives targeting innate immune sensors and xanthine oxidase for treatment of gout” (Bioorg Med Chem, 2018).
The source made the active and inactive calls. The rule behind the calls is not given here.

Key:
Rattus norvegicus [1] = test: (§1) Antiarthritic activity in MSU-induced acute gouty arthritis Sprague-Dawley rat model assessed as reduction in ankle swelling by measuring perimeter of ankle at 5 mg/kg, po qd pretreated via gavage for 5 days followed by MSU treatment at 1 hr post last dose measured after 12 hrs (reference value: 3.51 +/- 0.52 cm); assay type: functional
Rattus norvegicus [2] = test: Antiarthritic activity in po dosed MSU-induced acute gouty arthritis Sprague-Dawley rat model assessed as reduction in ankle swelling pretreated qd via gavage for 5 days followed by MSU treatment at 1 hr post last dose measured after 24 hrs; assay type: functional, organism-based
Rattus norvegicus [3] = test: Inhibition of MSU-induced TLR4 protein level in synovial homogenate of acute gouty arthritis Sprague-Dawley rat model at 2.5 to 10 mg/kg, po qd pretreated via gavage for 5 days followed by MSU treatment at 1 hr post last dose measured up to 24 hrs by Western blot method; assay type: functional, organism-based
Mus musculus [4] = test: Hypouricemic effect in Kunming mouse assessed as inhibition of hepatic XOD activity at 2.5 mg/kg, po measured after 1 hr relative to control; assay type: organism-based
Rattus norvegicus [5] = test: as §1, with “at 10” for “at 5”; assay type: functional
Mus musculus [6] = test: Anti-hyperuricemic effect in Kunming mouse assessed as inhibition of potassium oxonate-induced serum uric acid level administered po 1 hr post potassium oxonate addition measured after 1 hr by phosphotungstic acid method; assay type: functional, organism-based
Rattus norvegicus [7] = test: as §1, with “at 2.5” for “at 5”, “measured immediately” for “measured after 12 hrs”, “value: 2.64” for “value: 3.51”, “+/- 0.81” for “+/- 0.52”; assay type: functional
Rattus norvegicus [8] = test: Inhibition of MSU-induced NLRP3 protein level in synovial homogenate of acute gouty arthritis Sprague-Dawley rat model at 2.5 to 10 mg/kg, po qd pretreated via gavage for 5 days followed by MSU treatment at 1 hr post last dose measured up to 24 hrs by Western blot method; assay type: functional, organism-based
Rattus norvegicus [9] = test: Inhibition of MSU-induced p65 NFkappaB protein level in synovial homogenate of acute gouty arthritis Sprague-Dawley rat model at 2.5 to 10 mg/kg, po qd pretreated via gavage for 5 days followed by MSU treatment at 1 hr post last dose measured up to 24 hrs by Western blot method; assay type: functional, organism-based
Rattus norvegicus [10] = test: as §1, with “8” for “12”, “3.27” for “3.51”, “0.56” for “0.52”; assay type: functional
Rattus norvegicus [11] = test: as §1, with “at 2.5” for “at 5”, “after 4” for “after 12”, “value: 3.18” for “value: 3.51”, “+/- 0.64” for “+/- 0.52”; assay type: functional
Mus musculus [12] = test: Hypouricemic effect in Kunming mouse assessed as inhibition of hepatic XOD activity at 5 mg/kg, po measured after 1 hr relative to control; assay type: organism-based
Mus musculus [13] = test: In vivo inhibition of XOD activity in liver of Kunming mouse model of potassium oxonate-induced hyperuricemia at 2.5 mg/kg, po treated 1 hr post potassium oxonate addition measured after 1 hr relative to control; assay type: functional
Rattus norvegicus [14] = test: Inhibition of MSU-induced MyD88 protein level in synovial homogenate of acute gouty arthritis Sprague-Dawley rat model at 2.5 to 10 mg/kg, po qd pretreated via gavage for 5 days followed by MSU treatment at 1 hr post last dose measured up to 24 hrs by Western blot method; assay type: functional, organism-based
Rattus norvegicus [15] = test: as §1, with “at 10” for “at 5”, “after 24” for “after 12”, “value: 3.35” for “value: 3.51”, “+/- 0.5” for “+/- 0.52”; assay type: functional
Rattus norvegicus [16] = test: as §1, with “4” for “12”, “3.18” for “3.51”, “0.64” for “0.52”; assay type: functional
Rattus norvegicus [17] = test: Inhibition of MSU-induced caspase-1 protein level in synovial homogenate of acute gouty arthritis Sprague-Dawley rat model at 2.5 to 10 mg/kg, po qd pretreated via gavage for 5 days followed by MSU treatment at 1 hr post last dose measured up to 24 hrs by Western blot method; assay type: functional, organism-based
[18] = target: T1, Xanthine dehydrogenase/oxidase (Homo sapiens, UniProt P47989); test: Inhibition of Xanthine oxidase (unknown origin) using xanthine as substrate preincubated for 1 to 5 mins followed by substrate addition
T1 sequence (P47989 whole entry): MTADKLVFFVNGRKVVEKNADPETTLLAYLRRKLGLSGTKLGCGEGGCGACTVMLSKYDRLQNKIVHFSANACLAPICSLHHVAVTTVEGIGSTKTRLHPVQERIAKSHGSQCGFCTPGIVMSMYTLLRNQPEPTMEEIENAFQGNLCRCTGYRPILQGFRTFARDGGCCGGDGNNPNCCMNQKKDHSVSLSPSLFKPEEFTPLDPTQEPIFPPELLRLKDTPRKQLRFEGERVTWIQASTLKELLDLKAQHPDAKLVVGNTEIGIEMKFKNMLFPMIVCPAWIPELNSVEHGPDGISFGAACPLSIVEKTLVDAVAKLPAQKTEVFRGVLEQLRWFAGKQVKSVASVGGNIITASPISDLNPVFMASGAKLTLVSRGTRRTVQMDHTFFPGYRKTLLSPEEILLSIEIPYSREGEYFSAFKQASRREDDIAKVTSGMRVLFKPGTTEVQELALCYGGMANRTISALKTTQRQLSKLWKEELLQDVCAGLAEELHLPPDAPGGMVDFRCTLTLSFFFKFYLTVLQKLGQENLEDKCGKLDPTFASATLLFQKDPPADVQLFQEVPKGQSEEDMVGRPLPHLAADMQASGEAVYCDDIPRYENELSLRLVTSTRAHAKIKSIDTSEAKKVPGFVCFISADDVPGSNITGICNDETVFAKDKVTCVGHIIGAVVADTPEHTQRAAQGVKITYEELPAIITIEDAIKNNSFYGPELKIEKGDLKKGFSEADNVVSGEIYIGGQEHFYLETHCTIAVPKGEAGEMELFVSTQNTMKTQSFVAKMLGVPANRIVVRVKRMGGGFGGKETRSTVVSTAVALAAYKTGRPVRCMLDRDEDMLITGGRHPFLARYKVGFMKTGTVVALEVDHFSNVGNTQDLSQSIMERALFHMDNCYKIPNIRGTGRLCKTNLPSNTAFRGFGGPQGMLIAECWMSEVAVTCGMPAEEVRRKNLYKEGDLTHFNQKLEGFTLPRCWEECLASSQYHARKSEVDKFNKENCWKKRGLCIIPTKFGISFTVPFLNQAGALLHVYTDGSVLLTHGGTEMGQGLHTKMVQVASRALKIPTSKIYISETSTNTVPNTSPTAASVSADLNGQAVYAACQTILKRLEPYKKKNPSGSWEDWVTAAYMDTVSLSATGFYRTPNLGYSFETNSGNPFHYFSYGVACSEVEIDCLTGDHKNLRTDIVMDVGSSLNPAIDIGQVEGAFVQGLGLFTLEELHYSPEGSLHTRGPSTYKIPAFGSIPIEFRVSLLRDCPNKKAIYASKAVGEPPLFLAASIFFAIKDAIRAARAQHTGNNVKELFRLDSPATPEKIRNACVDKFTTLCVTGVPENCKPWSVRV

Rattus norvegicus [19] = test: as §1, with “at 10” for “at 5”, “after 4” for “after 12”, “value: 3.18” for “value: 3.51”, “+/- 0.64” for “+/- 0.52”; assay type: functional
Toll-like receptor 4 = Toll-like receptor 4 (Homo sapiens, UniProt O00206); test: Inhibition of human TLR4 signaling expressed in HEK-Blue cells co-expressing MD2/CD14 assessed as reduction in LPS-induced NF-kappaB activation-mediated SEAP production preincubated for 2 hrs followed by LPS stimulation for 20 hrs by colorimetric assay; assay type: cell-based
Chain of Toll-like receptor 4 (O00206 whole entry): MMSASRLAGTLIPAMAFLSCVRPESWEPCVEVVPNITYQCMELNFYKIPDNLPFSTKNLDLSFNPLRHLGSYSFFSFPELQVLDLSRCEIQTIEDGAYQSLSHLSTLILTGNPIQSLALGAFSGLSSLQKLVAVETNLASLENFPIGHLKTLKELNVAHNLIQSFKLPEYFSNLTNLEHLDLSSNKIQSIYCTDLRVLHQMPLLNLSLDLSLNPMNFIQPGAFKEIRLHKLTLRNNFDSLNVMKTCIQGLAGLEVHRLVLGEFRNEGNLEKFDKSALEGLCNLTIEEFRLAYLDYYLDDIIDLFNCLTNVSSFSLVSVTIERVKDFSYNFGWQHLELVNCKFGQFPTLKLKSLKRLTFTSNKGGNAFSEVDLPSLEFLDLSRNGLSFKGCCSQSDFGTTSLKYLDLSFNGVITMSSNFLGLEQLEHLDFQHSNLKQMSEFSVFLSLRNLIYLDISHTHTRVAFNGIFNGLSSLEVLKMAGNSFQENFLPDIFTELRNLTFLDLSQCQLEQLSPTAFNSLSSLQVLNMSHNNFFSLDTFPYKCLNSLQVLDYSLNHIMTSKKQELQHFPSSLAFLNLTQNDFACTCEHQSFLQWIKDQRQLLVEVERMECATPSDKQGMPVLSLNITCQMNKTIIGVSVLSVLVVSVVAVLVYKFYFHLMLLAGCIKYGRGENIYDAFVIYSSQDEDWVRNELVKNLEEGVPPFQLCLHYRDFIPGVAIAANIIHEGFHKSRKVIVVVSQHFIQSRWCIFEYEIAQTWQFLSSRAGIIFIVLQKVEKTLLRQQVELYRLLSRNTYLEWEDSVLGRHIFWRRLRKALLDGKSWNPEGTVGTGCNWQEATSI

Rattus norvegicus [20] = test: as §1, with “at 2.5” for “at 5”; assay type: functional
Rattus norvegicus [21] = test: as §1, with “24” for “12”, “3.35” for “3.51”, “0.5” for “0.52”; assay type: functional
Rattus norvegicus [22] = test: Inhibition of MSU-induced TNFalpha level in serum of acute gouty arthritis Sprague-Dawley rat model at 2.5 to 10 mg/kg, po qd pretreated via gavage for 5 days followed by MSU treatment at 1 hr post last dose measured up to 24 hrs by ELISA; assay type: functional, organism-based
Mus musculus [23] = test: In vivo inhibition of XOD activity in liver of Kunming mouse model of potassium oxonate-induced hyperuricemia administered po 1 hr post potassium oxonate addition measured after 1 hr; assay type: functional, organism-based
Mus musculus [24] = test: Hypouricemic effect in Kunming mouse assessed as inhibition of hepatic XOD activity at 10 mg/kg, po measured after 1 hr relative to control; assay type: organism-based
[25] = target: T1, Xanthine dehydrogenase/oxidase; test: Competitive inhibition of Xanthine oxidase (unknown origin) using xanthine as substrate preincubated for 1 to 5 mins followed by substrate addition by Lineweaver-Burk plot analysis
Rattus norvegicus [26] = test: as §1, with “at 2.5” for “at 5”, “after 8” for “after 12”, “value: 3.27” for “value: 3.51”, “+/- 0.56” for “+/- 0.52”; assay type: functional
Rattus norvegicus [27] = test: Inhibition of MSU-induced IL-1beta level in serum of acute gouty arthritis Sprague-Dawley rat model at 2.5 to 10 mg/kg, po qd pretreated via gavage for 5 days followed by MSU treatment at 1 hr post last dose measured up to 24 hrs by ELISA; assay type: functional, organism-based
Rattus norvegicus [28] = test: Inhibition of MSU-induced IL-1beta level in synovial homogenate of acute gouty arthritis Sprague-Dawley rat model at 2.5 to 10 mg/kg, po qd pretreated via gavage for 5 days followed by MSU treatment at 1 hr post last dose measured up to 24 hrs by ELISA; assay type: functional, organism-based
Mus musculus [29] = test: In vivo inhibition of XOD activity in liver of Kunming mouse model of potassium oxonate-induced hyperuricemia at 10 mg/kg, po treated 1 hr post potassium oxonate addition measured after 1 hr relative to control; assay type: functional

IC50 [18]: 3700 nM | IC50 (Toll-like receptor 4): 540 nM | Ki [25]: 2890 nM
Structure (SMILES): COc1ccc(C/C(=N\O)c2nc3ccc(OC)cc3o2)cc1
Activity (Rattus norvegicus [1]): 2.99 cm | Activity (Rattus norvegicus [2]): Dose-dependent effect | inhibition (Rattus norvegicus [3]): Active | inhibition at 2.5 mg/kg (Mus musculus [4]): 3.7% | Activity (Rattus norvegicus [5]): 2.7 cm | inhibition (Mus musculus [6]): Dose-dependent effect | Activity (Rattus norvegicus [7]): 2.65 cm | inhibition (Rattus norvegicus [8]): Active | inhibition (Rattus norvegicus [9]): Active | Activity (Rattus norvegicus [10]): 2.88 cm | Activity (Rattus norvegicus [11]): 2.95 cm | inhibition at 5 mg/kg (Mus musculus [12]): 6.8% | inhibition in vivo at 2.5 mg/kg (Mus musculus [13]): 19.2% | inhibition (Rattus norvegicus [14]): Active | Activity (Rattus norvegicus [15]): 2.73 cm | Activity (Rattus norvegicus [16]): 2.84 cm | inhibition (Rattus norvegicus [17]): Active | Activity (Rattus norvegicus [19]): 2.79 cm | Activity (Rattus norvegicus [20]): 3.14 cm | Activity (Rattus norvegicus [21]): 2.8 cm | inhibition (Rattus norvegicus [22]): Active | inhibition (Mus musculus [23]): Dose-dependent effect | inhibition at 10 mg/kg (Mus musculus [24]): 10.2% | Activity (Rattus norvegicus [26]): 2.96 cm | inhibition (Rattus norvegicus [27]): Active | inhibition (Rattus norvegicus [28]): Active | inhibition in vivo at 10 mg/kg (Mus musculus [29]): 41.9%
